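Results reflect a 48-hour exposure of cells in 96-well plates to compound at five concentrations. Abbreviation: GI50, concentration required for 50% inhibition of growth.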 Calls of active or inactive are those of the source. No stated cut-off is given here; in the data, active = GI50 up to about 1.1 µM and inactive = higher.
Columns and labels:
Assay in all cases: NCI tumour cell line growth inhibition, 48 h
TK-10 = system: TK-10
SNB-19 = system: SNB-19
SF-268 = system: SF-268
K562 = system: K562
SN12C = system: SN12C
OVCAR-5 = system: OVCAR-5
DLD-1 = system: DLD-1
RPMI-8226 = system: RPMI-8226
HOP-62 = system: HOP-62
HOP-18 = system: HOP-18
SK-OV-3 = system: SK-OV-3
LXFL 529 = system: LXFL 529
OVCAR-3 = system: OVCAR-3
HCT-116 = system: HCT-116
SR = system: SR
MOLT-4 = system: MOLT-4
Malme-3M = system: Malme-3M
OVCAR-4 = system: OVCAR-4
IGROV-1 = system: IGROV-1
786-0 = system: 786-0
LOX IMVI = system: LOX IMVI
MCF7 = system: MCF7
M14 = system: M14
HT-29 = system: HT-29
SNB-75 = system: SNB-75
UO-31 = system: UO-31
KM-20L2 = system: KM-20L2
XF498 = system: XF498
T47D = system: T47D
A549 = system: A549
U-251 = system: U-251
SK-MEL-5 = system: SK-MEL-5
HCT-15 = system: HCT-15
UACC-257 = system: UACC-257
UACC-62 = system: UACC-62
Hs-578T = system: Hs-578T
SF-539 = system: SF-539
NCI-H226 = system: NCI-H226
EKVX = system: EKVX
MDA-MB-435 = system: MDA-MB-435
KM12 = system: KM12
CAKI-1 = system: CAKI-1
M19-MEL = system: M19-MEL
SF-295 = system: SF-295
BT-549 = system: BT-549
DMS-114 = system: DMS-114
SK-MEL-2 = system: SK-MEL-2
A498 = system: A498
CCRF-CEM = system: CCRF-CEM
SNB-78 = system: SNB-78
ACHN = system: ACHN
DMS-273 = system: DMS-273
SK-MEL-28 = system: SK-MEL-28
OVCAR-8 = system: OVCAR-8
NCI-H23 = system: NCI-H23
DU-145 = system: DU-145
HCC 2998 = system: HCC 2998
COLO 205 = system: COLO 205
HL-60 = system: HL-60
NCI-H460 = system: NCI-H460
NCI-H522 = system: NCI-H522
SW-620 = system: SW-620
HOP-92 = system: HOP-92
RXF 631 = system: RXF 631
RXF 393 = system: RXF 393

With `O=C(O)COc1ccc(C(=O)/C(SS/C(C(=O)c2ccc(OCC(=O)O)c(Cl)c2Cl)=C2\C=C(c3ccc(F)cc3)SS2)=C2/C=C(c3ccc(F)cc3)SS2)c(Cl)c1Cl` the GI50 (TK-10) was 37.8 µM (inactive), the GI50 (SNB-19) was 15 µM (inactive) and the GI50 (SF-268) was 6.9 µM (inactive). For the same compound, the GI50 (K562) was 4.22 µM (inactive), the GI50 (SN12C) was 14.7 µM (inactive) and the GI50 (OVCAR-5) was 32.8 µM (inactive). For the same compound, the GI50 (DLD-1) was 11.2 µM (inactive), the GI50 (RPMI-8226) was 10.1 µM (inactive) and the GI50 (HOP-62) was 33.9 µM (inactive). For the same compound, the GI50 (HOP-18) was 14.7 µM (inactive), the GI50 (SK-OV-3) was 41.7 µM (inactive) and the GI50 (LXFL 529) was 3.29 µM (inactive). The GI50 (OVCAR-3) was 9.46 µM (inactive), the GI50 (HCT-116) was 9.29 µM (inactive) and the GI50 (SR) was 3.76 µM (inactive). For the same compound, the GI50 (MOLT-4) was 8.67 µM (inactive), the GI50 (Malme-3M) was 40.8 µM (inactive) and the GI50 (OVCAR-4) was 13.4 µM (inactive). For the same compound, the GI50 (IGROV-1) was 10.8 µM (inactive), the GI50 (786-0) was 27.9 µM (inactive) and the GI50 (LOX IMVI) was 3.12 µM (inactive). For the same compound, the GI50 (MCF7) was 36.8 µM (inactive), the GI50 (M14) was 23.6 µM (inactive) and the GI50 (HT-29) was 26.9 µM (inactive). For the same compound, the GI50 (SNB-75) was 17.2 µM (inactive), the GI50 (UO-31) was 15.7 µM (inactive) and the GI50 (KM-20L2) was 30 µM (inactive). For the same compound, the GI50 (XF498) was 5.22 µM (inactive), the GI50 (T47D) was 3.13 µM (inactive) and the GI50 (A549) was 40.4 µM (inactive). For the same compound, the GI50 (U-251) was 5.75 µM (inactive), the GI50 (SK-MEL-5) was 17.5 µM (inactive) and the GI50 (HCT-15) was 9.71 µM. For the same compound, the GI50 (UACC-257) was 27.5 µM (inactive), the GI50 (UACC-62) was 8.24 µM (inactive) and the GI50 (Hs-578T) was 3.83 µM (inactive). For the same compound, the GI50 (SF-539) was 9.02 µM (inactive), the GI50 (NCI-H226) was 15.1 µM (inactive) and the GI50 (EKVX) was 38.6 µM (inactive). For the same compound, the GI50 (MDA-MB-435) was 49.4 µM (inactive), the GI50 (KM12) was 15.1 µM (inactive) and the GI50 (CAKI-1) was 33.5 µM (inactive). For the same compound, the GI50 (M19-MEL) was 13.2 µM (inactive), the GI50 (SF-295) was 20.8 µM (inactive) and the GI50 (BT-549) was 27.7 µM (inactive). For the same compound, the GI50 (DMS-114) was 3.28 µM (inactive), the GI50 (SK-MEL-2) was 15.6 µM (inactive) and the GI50 (A498) was 31.7 µM (inactive). For the same compound, the GI50 (CCRF-CEM) was 4.95 µM (inactive), the GI50 (SNB-78) was 6.08 µM (inactive) and the GI50 (ACHN) was 18.6 µM (inactive). For the same compound, the GI50 (DMS-273) was 13.6 µM (inactive), the GI50 (SK-MEL-28) was 19.2 µM (inactive) and the GI50 (OVCAR-8) was 14 µM (inactive). For the same compound, the GI50 (NCI-H23) was 13.2 µM (inactive), the GI50 (DU-145) was 26.6 µM (inactive) and the GI50 (HCC 2998) was 25.6 µM (inactive). For the same compound, the GI50 (COLO 205) was 6.76 µM (inactive), the GI50 (HL-60) was 2.37 µM (inactive) and the GI50 (NCI-H460) was 21.7 µM (inactive). The GI50 (NCI-H522) was 2.38 µM (inactive), the GI50 (SW-620) was 15.6 µM (inactive) and the GI50 (HOP-92) was 3.75 µM (inactive).

With `Cn1ccnc1C(c1nccn1C)C(C)(C)[N+](=O)[O-]` the GI50 (TK-10) was > 100 µM (inactive), the GI50 (SF-268) was > 100 µM (inactive) and the GI50 (K562) was > 100 µM (inactive). For the same compound, the GI50 (SN12C) was > 100 µM (inactive), the GI50 (DLD-1) was > 100 µM (inactive) and the GI50 (RPMI-8226) was > 100 µM (inactive). For the same compound, the GI50 (HOP-62) was > 100 µM (inactive), the GI50 (SK-OV-3) was > 100 µM (inactive) and the GI50 (OVCAR-3) was > 100 µM (inactive). The GI50 (HCT-116) was > 100 µM (inactive), the GI50 (SR) was > 100 µM (inactive) and the GI50 (MOLT-4) was > 100 µM (inactive). For the same compound, the GI50 (OVCAR-4) was > 100 µM (inactive), the GI50 (786-0) was > 100 µM (inactive) and the GI50 (LOX IMVI) was > 100 µM (inactive). For the same compound, the GI50 (M14) was > 100 µM (inactive), the GI50 (SNB-75) was > 100 µM (inactive) and the GI50 (XF498) was > 100 µM (inactive). For the same compound, the GI50 (A549) was > 100 µM (inactive), the GI50 (U-251) was > 100 µM (inactive) and the GI50 (SK-MEL-5) was > 100 µM (inactive). The GI50 (HCT-15) was over 100 µM, the GI50 (UACC-257) was > 100 µM (inactive) and the GI50 (UACC-62) was 12.4 µM (inactive). The GI50 (SF-539) was > 100 µM (inactive), the GI50 (EKVX) was > 100 µM (inactive) and the GI50 (KM12) was > 100 µM (inactive). The GI50 (CAKI-1) was > 100 µM (inactive), the GI50 (M19-MEL) was > 100 µM (inactive) and the GI50 (SF-295) was > 100 µM (inactive). For the same compound, the GI50 (DMS-114) was > 100 µM (inactive), the GI50 (RXF 631) was > 100 µM (inactive) and the GI50 (SK-MEL-2) was > 100 µM (inactive). The GI50 (RXF 393) was > 100 µM (inactive), the GI50 (A498) was > 100 µM (inactive) and the GI50 (CCRF-CEM) was > 100 µM (inactive). The GI50 (SNB-78) was > 100 µM (inactive), the GI50 (ACHN) was > 100 µM (inactive) and the GI50 (DMS-273) was > 100 µM (inactive). The GI50 (SK-MEL-28) was > 100 µM (inactive), the GI50 (OVCAR-8) was > 100 µM (inactive) and the GI50 (HCC 2998) was > 100 µM (inactive). The GI50 (COLO 205) was > 100 µM (inactive), the GI50 (HL-60) was > 100 µM (inactive) and the GI50 (NCI-H460) was > 100 µM (inactive). For the same compound, the GI50 (NCI-H522) was > 100 µM (inactive), the GI50 (SW-620) was > 100 µM (inactive) and the GI50 (HOP-92) was > 100 µM (inactive).

In the case of `Cc1ccc(-c2nnc(SCC(=O)O)[nH]2)cc1`, the GI50 (TK-10) was > 100 µM (inactive), the GI50 (SNB-19) was > 100 µM (inactive) and the GI50 (SF-268) was > 100 µM (inactive). The GI50 (K562) was > 100 µM (inactive), the GI50 (SN12C) was > 100 µM (inactive) and the GI50 (OVCAR-5) was > 100 µM (inactive). For the same compound, the GI50 (DLD-1) was > 100 µM (inactive), the GI50 (RPMI-8226) was > 100 µM (inactive) and the GI50 (HOP-62) was > 100 µM (inactive). For the same compound, the GI50 (HOP-18) was > 100 µM (inactive), the GI50 (SK-OV-3) was > 100 µM (inactive) and the GI50 (LXFL 529) was > 100 µM (inactive). The GI50 (OVCAR-3) was > 100 µM (inactive), the GI50 (HCT-116) was > 100 µM (inactive) and the GI50 (SR) was > 100 µM (inactive). The GI50 (MOLT-4) was > 100 µM (inactive), the GI50 (Malme-3M) was > 100 µM (inactive) and the GI50 (OVCAR-4) was > 100 µM (inactive). For the same compound, the GI50 (IGROV-1) was > 100 µM (inactive), the GI50 (786-0) was > 100 µM (inactive) and the GI50 (M14) was > 100 µM (inactive). The GI50 (HT-29) was > 100 µM (inactive), the GI50 (SNB-75) was 78.5 µM (inactive) and the GI50 (UO-31) was > 100 µM (inactive). The GI50 (KM-20L2) was > 100 µM (inactive), the GI50 (XF498) was > 100 µM (inactive) and the GI50 (A549) was > 100 µM (inactive). For the same compound, the GI50 (U-251) was > 100 µM (inactive), the GI50 (SK-MEL-5) was > 100 µM (inactive) and the GI50 (HCT-15) was over 100 µM. The GI50 (UACC-257) was > 100 µM (inactive), the GI50 (UACC-62) was > 100 µM (inactive) and the GI50 (SF-539) was > 100 µM (inactive). For the same compound, the GI50 (NCI-H226) was > 100 µM (inactive), the GI50 (EKVX) was > 100 µM (inactive) and the GI50 (KM12) was > 100 µM (inactive). The GI50 (CAKI-1) was > 100 µM (inactive), the GI50 (M19-MEL) was > 100 µM (inactive) and the GI50 (SF-295) was > 100 µM (inactive). The GI50 (DMS-114) was > 100 µM (inactive), the GI50 (SK-MEL-2) was > 100 µM (inactive) and the GI50 (A498) was > 100 µM (inactive). For the same compound, the GI50 (CCRF-CEM) was > 100 µM (inactive), the GI50 (SNB-78) was > 100 µM (inactive) and the GI50 (ACHN) was > 100 µM (inactive). For the same compound, the GI50 (DMS-273) was > 100 µM (inactive), the GI50 (SK-MEL-28) was > 100 µM (inactive) and the GI50 (OVCAR-8) was > 100 µM (inactive). For the same compound, the GI50 (NCI-H23) was > 100 µM (inactive), the GI50 (HCC 2998) was > 100 µM (inactive) and the GI50 (COLO 205) was > 100 µM (inactive). The GI50 (HL-60) was > 100 µM (inactive), the GI50 (NCI-H460) was > 100 µM (inactive) and the GI50 (NCI-H522) was > 100 µM (inactive). The GI50 (SW-620) was > 100 µM (inactive) and the GI50 (HOP-92) was > 100 µM (inactive).

From ChEMBL document CHEMBL1201862, “PubChem BioAssay data set” (2004)
